Measurements reported in patent US4430355A, “Condensed isothiazolo-3 (2H)-one-1-1-dioxides” (priority 1977, dated 1984).
Where a name gives a salt, the structure may show the parent alone.

Experiments:
[1] = Determination of the threshold concentration (taste testers, Schutz and Pilgrim method); parameters: key: mean of 5 testers; 0 = not sweet, 3 = very sweet
Experimental: From novel compounds A, B, C, D, E and F and from known comparison compounds U, V and W aqueous solutions in concentrations of 1:12500, 1:25000, 1:50000, 1:100000 and 1:200000 were prepared and evaluated by each of 5 taste testers according to the following criteria: Very sweet (=3 points); medium sweet (=2 points), slightly sweet (=1 point) and not sweet (=0 point). The tests were carried out according to the method of H. G. Schutz and F. J. Pilgrim [Food Research 22, 206 (1957)]. The dilution with perceptible sweetness was defined as the concentration at which the average value reached the evaluation points 1.0 or higher.

[2] = Determination of the relative sweetening power in comparison to saccharose (taste testers, 3% saccharose solution); details: compared with 3% aqueous solution of saccharose
Description: The relative sweetening power (often also defined as degree of sweetness) of sweetening agents in comparison to saccharose (cane sugar) varies with the concentrations within wide limits. Thus, in the usual concentrations (corresponding to a 2-10% solution of saccharose) the relative sweetening power of saccharin varies from 200 to 700. Therefore, for the determination of the relative sweetening power of the above-mentioned compounds a 3% aqueous solution of saccharose was always used for comparison.
The further determination of the relative sweetening power was continued according to the methods of R. Pauli [Chemiker Zeitung 44, 744 (1920)] and T. Paul [Chemiker-Zeitung 45 38 (1921)]. Each test series was tested by 4 taste testers.

[3] = heretofore known sweetening agents; cited from earlier work
[4] = usual concentrations, corresponding to a 2-10% solution of saccharose; cited from earlier work
[5] = Batzinger, On and Bueding, Science 198, 944 (1977); cited from earlier work
[6] = system: mice; assay: Rotating cylinder test, muscle-relaxing and coordination inhibitory effects; format: in vivo; details: 200 mgm/kg p.o.
[7] = system: rats; assay: Spontaneous motility in electric activity cages (Fuhrer and Feldhofer); format: in vivo
Experimental: (§1) Also, the test of the motility of rats in electric activity cages according to Fuhrer and Feldhofer [Arzneim. Forsch. […] Moreover, no effect regarding the body temperatures of the rats at a dosage of 200 mg/kg p.o. could be observed. The measurements were made after 1, 2, 3 and 4 hours after oral administration of the substance; one control group only received the distilled water solvent.

[8] = system: bacteria; assay: Bacteriostatic effect
[9] = system: mice; assay: Hexobarbital narcosis, loss of the righting reflex; format: in vivo; details: 25 mgm/kg p.o.
Description: Compound C has no effect on the hexobarbital narcosis in mice.

[10] = system: isolated, beating atrium of the rat heart; assay: Isolated, beating atrium
Experimental: (§2) The compound C had no effect on the contractility and the frequency of the isolated, beating atrium of the rat heart. When compound C was given in doses of 1.0 and 3.0 and 10.0 mg/kg i.v. no effect on blood pressure, heart rate and respiration of anesthetized cats could be observed. At concentrations of 1×10^-4 mol/liter compound C had no effect on the ADP-induced, thrombine-induced and collagen-induced aggregation of the thrombozytes in the platelet-rich plasma of healthy test persons.

[11] = system: eye of the rabbit; assay: Local compatibility in the eye; format: in vivo; details: 1% solution
[12] = system: water-loaded male rats; assay: Secretion of Na+, K+, Cl- and liquid in water-loaded rats; format: in vivo; details: 200 mgm/kg p.o.
[13] = system: fungi; assay: Fungistatic effect
[14] = system: microorganism growth; assay: Series dilution essay, inhibition of the microorganism growth; format: cell-based; details: highest dosages (C 0.5 mgm/plate, D 20 mg/plate)
Experimental: (§3) The substance concentrations of compound C were 0.1 and 0.5 mgm/plate and the concentrations of compound D were 5, 10, 15 and 20 mg/plate.

[15] = system: Escherichia coli WP 2 (P); assay: AMES-system, test for mutagenic effects, Escherichia coli; format: cell-based
Experimental: In order to show the whole spectrum of induced molecular DNA-damages (base substitutions, frame-shift mutations, deletions) the auxotrophic bacterial strains Salmonella typhimurium TA 98, TA 100 and Escherichia coli WP 2 (P) were used as genetic indicators.
The test for all microorganisms were carried out in a way such that the influence of a microsomal enzyme system, together with the corresponding co-factors, could be tested with regard to the test substance, and to determine the differences in enzyme induction. The tests were performed without an activating system and in the presence of an activating system. […] From the S-9 induced fraction, 3 different concentration levels were tested.

[16] = Evaluation of taste quality
Description: They often have a side-taste or after-taste. Novel compounds A to F are, however, characterized by a very pure sweet taste.

[17] = system: Salmonella typhimurium TA 98, TA 100, TA 1535, TA 1537, TA 1538; assay: AMES-system, test for mutagenic effects, Salmonella typhimurium; format: cell-based
Experimental: Compounds C and D were tested in the AMES-system [Mutation Research 31, 347-364 (1975)] with regard to their mutagenic properties. In order to show the whole spectrum of induced molecular DNA-damages (base substitutions, frame-shift mutations, deletions) the auxotrophic bacterial strains Salmonella typhimurium TA 98, TA 100 and Escherichia coli WP 2 (P) were used as genetic indicators. The strains Salmonella typhimurium TA 1535, TA 1537 and TA 1538 were additionally used in the test of compound C.
The test for all microorganisms were carried out in a way such that the influence of a microsomal enzyme system, together with the corresponding co-factors, could be tested with regard to the test substance, and to determine the differences in enzyme induction. The tests were performed without an activating system and in the presence of an activating system. For the in vitro-activation, S-9 supernatants (fraction of the endoplasmatic reticulum) of normal, i.e. not pre-treated rats and of Aroclor 1254 (500 mg/kg) induced rats were used. From the S-9 induced fraction, 3 different concentration levels were tested.
as §3

[18] = system: mice; assay: Tail clamp test according to Haffner, defensive reactions to pain stimuli; format: in vivo; details: 200 mgm/kg p.o.
[19] = system: mice; assay: Spontaneous motility in light beam cages; format: in vivo; details: same dosage (200 mgm/kg p.o.)
[20] = system: rat; assay: Orienting acute toxicity, oral, rat; format: in vivo; details: 5000 mgm/kg oral, 6 animals
Experimental: The acute toxicity was determined after oral administration to male and female mice and to male and female rats. The substances were given in an aqueous solution or as a suspension in tylose.

[21] = system: thrombozytes in the platelet-rich plasma of healthy test persons; assay: Thrombozyte aggregation in platelet-rich plasma; format: cell-based; details: 1×10^-4 mol/liter
Experimental: as §2

[22] = system: mice; assay: Electroshock convulsion; format: in vivo; details: 200 mgm/kg p.o.
[23] = system: anesthetized cats; assay: Blood pressure, heart rate and respiration of anesthetized cats; format: in vivo; details: anesthetized cats, 1.0, 3.0 and 10.0 mg/kg i.v.
Experimental: as §2

[24] = Body temperature; format: in vivo; details: rats, 200 mg/kg p.o.; 1, 2, 3 and 4 hours after administration
Experimental: as §1

[25] = system: male mice; assay: Hypothermia caused by reserpine; format: in vivo
Description: It also has no influence on the hypothermia of male mice, which is caused by reserpine.

[26] = system: intestinal tract of the rat; assay: Ulcerations in the intestinal tract; format: in vivo; details: 3 times 200 mgm/kg p.o.

Question: Which “Average Value of Evaluation Points” value ([1]; concentration 1:25000) does the source give for `O=C1NS(=O)(=O)c2ccccc21` [V, Saccharin, reference compound] here?
Answer: Its value is 2.4.

Question: What about the “Average Value of Evaluation Points” value ([1]; concentration 1:50000) of the same compound?
Answer: Its value is 1.2.

Question: And the “Average Value of Evaluation Points” value ([1]; concentration 1:100000)?
Answer: Its value is 0.4.

Question: And the “Relative Sweetening Power (Saccharose = 1)” value [2]?
Answer: Its value is 550.

Question: And the side-taste or after-taste [3]?
Answer: The side-taste or after-taste was “unpleasant after-taste”.

Question: And the “taste quality compared with saccharose” value [3]?
Answer: The value was “do not have the taste quality of saccharose”.

Question: What about the “relative sweetening power of saccharin” value [4] of the same compound?
Answer: Its value is 200 to 700.

Question: And the mutagenic effect [5]?
Answer: Its mutagenic effect is “shows a mutagenic effect”.

Question: With `Cc1cc2c(s1)S(=O)(=O)NC2=O` [Compound C, 5-Methyl-thieno[3,2-d]isothiazole-3-(2H)-one-1,1-dioxide sodium salt] as the compound, how does the “ability to hold themselves in rotating cylinders” value [6] read?
Answer: Its value is “able to hold themselves in rotating cylinders”.

Question: What about the “muscle-relaxing and coordination inhibitory effects” value [6] of the same compound?
Answer: The value was “no muscle-relaxing and coordination inhibitory effects”.

Question: And the “effect on spontaneous motility” value [7]?
Answer: Its value is “did not show any effect on the spontaneous motility”.

Question: What about the bacteriostatic effect [8] of the same compound?
Answer: The bacteriostatic effect was “neither bacteriostatically nor fungistatically effective”.

Question: And the “duration of hexobarbital narcosis (loss of the righting reflex)” value [9]?
Answer: Its value is “not influenced”.

Question: What about the effect on contractility [10] of the same compound?
Answer: The effect on contractility was “no effect”.

Question: What about the effect on frequency [10] of the same compound?
Answer: The effect on frequency was “no effect”.

Question: And the local anesthesia [11]?
Answer: The local anesthesia was “no local anesthesia”.

Question: What about the mydriasis [11] of the same compound?
Answer: Its mydriasis is “no mydriasis”.

Question: And the “redness of the conjunctiva” value [11]?
Answer: The value was “no redness of the conjunctiva”.

Question: What about the “secretion of Cl^-” value [12] of the same compound?
Answer: The value was “no effect”.

Question: What about the “secretion of K^+” value [12] of the same compound?
Answer: The value was “no effect”.

Question: What about the “secretion of Na^+” value [12] of the same compound?
Answer: The value was “no effect”.

Question: And the secretion of liquid [12]?
Answer: The secretion of liquid was “no effect”.

Question: And the fungistatic effect [13]?
Answer: The fungistatic effect was “neither bacteriostatically nor fungistatically effective”.

Question: What about the “Average Value of Evaluation Points” value ([1]; concentration 1:25000, sodium salt) of the same compound?
Answer: The value was 2.0.

Question: What about the “Average Value of Evaluation Points” value ([1]; concentration 1:50000, sodium salt) of the same compound?
Answer: The value was 1.2.

Question: What about the “inhibition of the microorganism growth” value [14] of the same compound?
Answer: The value was “did not show any inhibition”.

Question: What about the “release of base substitutions” value ([15]; E. coli WP2 (P)) of the same compound?
Answer: The value was “do not release base substitutions”.

Question: And the “increase in the spontaneous mutation rate” value ([15]; E. coli WP 2 (P), C 0.1 and 0.5 mgm/plate, D 5-20 mg/plate, with and without activating system)?
Answer: The value was “did not lead to an increase”.

Question: And the “taste quality compared with saccharose (cane sugar)” value [16]?
Answer: Its value is “achieve the taste quality of saccharose”.

Question: What about the “release of base substitutions” value ([17]; S. typhimurium TA 1535, TA 100) of the same compound?
Answer: Its value is “do not release base substitutions”.

Question: What about the “release of frame-shift mutations” value ([17]; S. typhimurium TA 1537, TA 1538, TA 98) of the same compound?
Answer: Its value is “do not release”.

Question: And the “increase in the spontaneous mutation rate” value ([17]; Salmonella strains, C 0.1 and 0.5 mgm/plate, D 5-20 mg/plate, with and without activating system)?
Answer: Its value is “did not lead to an increase”.

Question: What about the “colonies counted on the substance plates” value ([17]; all test strains) of the same compound?
Answer: Its value is “within the spontaneous range”.

Question: And the “effect of the enzyme induction and of the activating fraction on the reverse mutation rate” value ([17]; all tested strains, S-9 of normal and Aroclor 1254 induced rats)?
Answer: Its value is “not detectable”.

Question: And the mutagenic potential ([17]; conclusion over all tested strains)?
Answer: The mutagenic potential was “do not indicate a mutagenic potential”.

Question: What about the “influence on the defensive reactions to pain stimuli” value [18] of the same compound?
Answer: The value was “did not show any influence”.

Question: And the “influence on spontaneous motility” value [19]?
Answer: The value was “does not influence the spontaneous motility of mice”.

Question: What about the “Animals which died within the observation time, 1 day” value [20] of the same compound?
Answer: The value was 0 animals.

Question: What about the “Animals which died within the observation time, 7 days” value [20] of the same compound?
Answer: Its value is 0 animals.

Question: And the “effect on ADP-induced aggregation of thrombozytes” value [21]?
Answer: Its value is “no effect”.

Question: What about the “effect on collagen-induced aggregation of thrombozytes” value [21] of the same compound?
Answer: Its value is “no effect”.

Question: And the “effect on thrombine-induced aggregation of thrombozytes” value [21]?
Answer: The value was “no effect”.

Question: What about the “influence on electroshock convulsion” value [22] of the same compound?
Answer: Its value is “does not influence”.

Question: What about the “effect on blood pressure” value [23] of the same compound?
Answer: The value was “no effect”.

Question: And the “effect on heart rate” value [23]?
Answer: Its value is “no effect”.

Question: And the effect on respiration [23]?
Answer: Its effect on respiration is “no effect”.

Question: What about the “effect on body temperature” value [24] of the same compound?
Answer: The value was “no effect”.

Question: And the “influence on reserpine hypothermia” value [25]?
Answer: The value was “no influence”.

Question: What about the “ulcerations in the intestinal tract” value [26] of the same compound?
Answer: The value was “does not cause any ulcerations”.
